The numbers were not newly measured in patent publication US8362260B2, “Crystalline forms of dexlansoprazole” (Dipharma Francis S.r.l., priority 2009, dated 2013), which cites them from elsewhere.

For the data set the following is noted: in vivo.

Turning to `Cc1c(OCC(F)(F)F)ccnc1C[S@@+]([O-])c1nc2ccccc2[nH]1` [Dexlansoprazole in amorphous form, (R)-2-[[[3-methyl-4(2,2,2-trifluoroethoxy)-2-piridyl]methyl]sulphinyl]benzimidazole], the bioavailability entry was “greater bioavailability”.
